Reference: patent publication US8734580B2, “Carbonyl propyl sulfuryl anthrapyridone sulfonic acid compounds and their preparation methods and applications” (Dalian University of Technology, priority 2011, dated 2014)

Key:
Type in all cases: physicochemical
[1] = Moisture resistance of the printed images; parameters: key: ∘: No bleeding; Δ: Slight bleeding; x: Notable bleeding; settings: printed images at 50° C. and 90% RH for 168 h; bleeding judged by bare eyes
Procedure: (§1) The mixture product M1, M2 or M3 and the pure compound obtained by separation according to the embodiments 1-3 are used as the magenta colorant, and the ink composition is prepared according to the formula shown in following table 1, and the magenta aqueous ink composition is obtained by filtering with a 0.45 μm membrane filter, wherein triethanolamine is added to adjust the pH value of the ink composition to 8-10, and deionized water is added to make the total amount reach 100 parts-by-weight (PBW).
(§2) Use an ink-jet printer (Epson 270 manufactured by Epson Company), glossy photo paper (Epson) and the above described ink compositions for ink-jet printing.
(3) Moisture Resistance of the Printed Images
Place the printed images in the Constant Temperature and Humidity Chamber (manufactured by China Surui Company) at 50° C. and 90% RH for 168 h; judge the bleeding of the ink by bare eyes before and after the test and evaluate it in 3 grades based on the following benchmark: […]

[2] = Evaluation of long-term stability of the dye in aqueous solvent system; parameters: key: ∘: No precipitation; Δ: Slight precipitation; x: Notable precipitation; settings: 20 parts dye, 70 parts water, 10 parts ethylene glycol; 50° C. for 7d, then 0° C. for 7d; filtered, precipitation graded
Procedure: (E) Evaluation of Long-Term Stability of the Dye in Aqueous Solvent System
Heat and dissolve the system of 20 parts of dyes, 70 parts of water and 10 parts of ethylene glycol; after the solution cools down, store it airtight at a constant temperature of 50° C. for 7d; cool it down and store it at 0° C. for 7d; filter the solution and evaluate it in 3 grades based on the following benchmark: […]

[3] = Ozone gas resistance of the printed images; settings: ink with 6 parts dye, printed on glossy photo paper; 40 ppm ozone, 60% RH, 24° C.; grade by color difference ΔE
Procedure: Use an ink-jet printer (Epson 270 manufactured by Epson Company), glossy photo paper (Epson) and the above described ink compositions for ink-jet printing. (2) Ozone Gas Resistance of the Printed Images Place the printed images in the Ozone Weathering Test Chamber (manufactured by China Surui Company) at 60% RH, 24° C. and 40 ppm ozone. Calculated the color difference (ΔE) before and after the test by the same method as described in (1) above and evaluate it in 3 grades based on the following benchmark: ΔE<10 ∘ ΔE<20 Δ ΔE>20 x

[4] = Evaluation of the dye solubility in water; settings: grade by g/100 g water
From the text: (D) Evaluation of the Dye Solubility in Water (g/100 g Water)
Solubility of the dye in water >30 ∘
Solubility of the dye in water >15-20 Δ
Solubility of the dye in water <15 x

[5] = Xenon lamp light-resistance test of the printed images; settings: ink with 6 parts dye, ink-jet printed on glossy photo paper; xenon lamp 0.36 W/m^2, 50 h, 60% RH, 24° C.; grade by color difference ΔE
Procedure: as §1, §2
(1) Xenon Lamp Light-Resistance Test of the Printed Images
Irradiate the printed glossy photo paper manufactured by Canon and Epson with Xenon-lamp Weathering Test Chamber ZG-P (manufactured by China Surui Company) at 60% RH and 24° C. with illuminance of 0.36 W/m^2 for 50 h to test the color difference (ΔE) before and after the test. The color difference (ΔE) is calculated from the differences of values of L*, a*, b* before and after the test in the above described color measurement system (Unterlab) by the followings formula: ΔE=((difference of L*)^2+(difference of a*)^2+(difference of b*)^2)^1/2.
Three grades will be divided for the evaluation based on the following benchmark: […]

Compound	Water resistance of ink printed images [1]	Long-term stability of the dye in aqueous solvent system [2]	Ozone resistance of ink printed images [3]	Solubility of dye in water [4]	Ultraviolet resistance of ink printed images [5]
O=C(O)CCCS(=O)(=O)c1cc(S(=O)(=O)O)c(Nc2cc(S(=O)(=O)O)c3[nH]c(=O)c(C(=O)c4cccc(S(=O)(=O)O)c4)c4c3c2C(=O)c2ccccc2-4)c(S(=O)(=O)O)c1 [Dp2]	∘	∘	∘ (ΔE<10)	∘ (Solubility of the dye in water >30)	∘ (ΔE<10)
O=C(c1cccc(S(=O)(=O)O)c1)c1c2c3c(c(Nc4c(S(=O)(=O)O)cc(S(=O)(=O)CCC5C(=O)c6ccccc6C5=O)cc4S(=O)(=O)O)cc(S(=O)(=O)O)c3[nH]c1=O)C(=O)c1ccccc1-2 [Dp8]	∘	∘	∘ (ΔE<10)	∘ (Solubility of the dye in water >30)	∘ (ΔE<10)
O=C(c1cccc(S(=O)(=O)O)c1)c1c2c3c(c(Nc4c(S(=O)(=O)O)cc(S(=O)(=O)CCC5C(=O)c6ccc(S(=O)(=O)O)cc6C5=O)cc4S(=O)(=O)O)cc(S(=O)(=O)O)c3[nH]c1=O)C(=O)c1ccccc1-2 (stereo not shown) [Dp10]	∘	∘	∘ (ΔE<10)	∘ (Solubility of the dye in water >30)	∘ (ΔE<10)
O=C(CCCS(=O)(=O)c1cc(S(=O)(=O)O)c(Nc2cc(S(=O)(=O)O)c3[nH]c(=O)c(C(=O)c4cccc(S(=O)(=O)O)c4)c4c3c2C(=O)c2ccccc2-4)c(S(=O)(=O)O)c1)c1cccc(S(=O)(=O)O)c1 [Dp4]	∘	∘	∘ (ΔE<10)	∘ (Solubility of the dye in water >30)	∘ (ΔE<10)
O=S(=O)([O-])c1cc(Nc2nc(Nc3ccc(/C=C/c4ccc(Nc5nc(Nc6cc(S(=O)(=O)[O-])cc7cc(S(=O)(=O)[O-])c(N=Nc8ccccc8)c(O)c67)nc(N6CCOCC6)n5)cc4S(=O)(=O)[O-])c(S(=O)(=O)[O-])c3)nc(N3CCOCC3)n2)c2c(O)c(N=Nc3ccccc3)c(S(=O)(=O)[O-])cc2c1.[Na+].[Na+].[Na+].[Na+].[Na+].[Na+] [C.I. direct red 227, reference compound]	Δ	Δ	x (ΔE>20)	x (Solubility of the dye in water <15)	x (ΔE>20)
